Source: patent US7795179B2, “Substituted azole compounds and its preparation and use thereof” (Shenyang Research Institute of Chemical Industry, priority 2004, dated 2010)

Columns and labels:
Assay type in all cases: in vivo
culex mosquito = assay: Insecticidal activity, dipping culture method, culex mosquito; conditions: 150 ppm, mortality 2 to 3 days after treatment
Experimental: (§1) Determination of insecticidal and acaricidal activities against plant diseases of selected compounds were carried out by following procedure:
(§2) Technical samples were dissolved in acetone and diluted to required concentration with water containing 0.1% of tween 80. Armyworm, diamondback moth and green peach aphid were treated with Potter spraying tower, and culex mosquito was treated with dipping culture method. Mortality investigation of test insects was carried out 2 to 3 days after treatment.

green peach aphid = assay: Insecticidal activity, Potter spraying tower, green peach aphid; conditions: 150 ppm, mortality 2 to 3 days after treatment
Experimental: as §1, §2

diamondback moth = assay: Insecticidal activity, Potter spraying tower, diamondback moth; conditions: 150 ppm, mortality 2 to 3 days after treatment
Experimental: as §1, §2

armyworm = assay: Insecticidal activity, Potter spraying tower, armyworm; conditions: 150 ppm, mortality 2 to 3 days after treatment
Experimental: as §1, §2

cucumber downy mildew = assay: Fungicidal activity on potted plants, cucumber downy mildew; conditions: spray on potted plant, inoculation after 24 hours
wheat powdery mildew = assay: Fungicidal activity on potted plants, wheat powdery mildew; conditions: spray on potted plant, inoculation after 24 hours
cucumber grey mold = assay: Fungicidal activity on potted plants, cucumber grey mold; conditions: 500 ppm, spray on potted plant, inoculation after 24 hours
tomato late blight = conditions: 100 ppm
rape sclerotiniose = assay: Fungicidal activity on potted plants, rape sclerotiniose; conditions: 100 ppm
wheat head blight = conditions: 100 ppm
[1] = system: apple alternaria leaf spot; assay: Fungicidal activity on potted plants, apple alternaria leaf spot; conditions: 100 ppm
grape white rot = assay: Fungicidal activity on potted plants, grape white rot; conditions: 100 ppm
[2] = system: corn southern leaf blight; assay: Fungicidal activity on potted plants, corn southern leaf blight; conditions: 100 ppm
apple ring rot = assay: Fungicidal activity on potted plants, apple ring rot; conditions: 100 ppm
Experimental: Determination of fungicidal activities against plant diseases of selected compounds were carried out by following procedure:
Technical samples were dissolved in DMF and diluted to required concentration wtih water containing 0.1% tween 80. Test solution was sprayed onto potted plant. Pathogen inoculation was carried out after 24 hours then plants were hold in growth chambers containing constant temperature and moisture for effect. When untreated plant was under desirable disease severity (after 1 week approximately), assessment were carried out by visual observation.

tomato early blight = assay: Fungicidal activity on potted plants, tomato early blight; conditions: 100 ppm
grape downy mildew = assay: Fungicidal activity on potted plants, grape downy mildew; conditions: 100 ppm

| SMILES | control against cucumber downy mildew (cucumber downy mildew; 50 ppm) [%] | control against cucumber downy mildew (cucumber downy mildew; 500 ppm) [%] | control against wheat powdery mildew (wheat powdery mildew; 50 ppm) [%] | control against wheat powdery mildew (wheat powdery mildew; 500 ppm) [%] | further results |
| --- | --- | --- | --- | --- | --- |
| CO/C=C(/C(=O)OC)c1ccccc1COc1c(C)c(-c2ccc(Cl)cc2)nn1C [Compound 30] | 100 | 100 | 100 | 100 | control of culex mosquitoes (culex mosquito): 100%; control of aphids (green peach aphid): 100%; control of diamond backmoth (diamondback moth): 100%; control of armyworm (armyworm): 100% |
| CO/C=C(/C(=O)OC)c1ccccc1COc1cc(-c2ccc(Cl)nc2)nn1C [Compound 69] | 100 | 100 | 100 | 100 |  |
| CO/C=C(/C(=O)OC)c1ccccc1COc1cc(-c2ccc(OCC(F)(F)F)cc2)nn1C [Compound 74] |  | 100 |  | 100 |  |
| CO/C=C(/C(=O)OC)c1ccccc1COc1cc(-c2ccccc2)nn1C [Compound 1] | 100 | 100 | 100 | 100 |  |
| CNC(=O)/C(=N/OC)c1ccccc1COc1cc(-c2ccc(Cl)cc2)nn1C [Compound 356] |  |  |  | 100 |  |
| CO/C=C(/C(=O)OC)c1ccccc1COc1cc(-c2ccc(Cl)nc2)no1 [Compound 151] |  |  |  | 100 | control against cucumber grey mold (cucumber grey mold): 100% |
| CO/C=C(/C(=O)OC)c1ccccc1COc1cc(-c2ccc(C(F)(F)F)cc2)nn1C [Compound 5] | 100 | 100 | 100 | 100 |  |
| CO/C=C(/C(=O)OC)c1ccccc1COc1cc(-c2ccc([N+](=O)[O-])cc2)no1 [Compound 86] | 100 | 100 | 100 | 100 |  |
| CO/N=C(/C(=O)OC)c1ccccc1COc1cc(-c2ccccc2)nn1C [Compound 247] |  |  |  | 100 | control against cucumber grey mold (cucumber grey mold): 100% |
| CO/C=C(/C(=O)OC)c1ccccc1COc1cc(-c2ccccc2)no1 [Compound 83] |  | 100 |  | 100 |  |
| CO/N=C(/C(=O)OC)c1ccccc1COc1cc(-c2ccc(Cl)cc2)nn1C [Compound 248] |  | 100 |  | 100 |  |
| CO/C=C(/C(=O)OC)c1ccccc1COc1cc(-c2ccc(SC)cc2)nn1C [Compound 165] |  |  |  | 100 |  |
| CO/C=C(/C(=O)OC)c1ccccc1COc1cc(-c2ccc(Oc3ccccc3)cc2)nn1C [Compound 174] |  |  |  | 100 |  |
| CNC(=O)/C(=N/OC)c1ccccc1COc1cc(-c2ccc(Cl)cc2)nn1C(C)C [Compound 435] |  |  |  | 100 |  |
| CO/C=C(/C(=O)OC)c1ccccc1COc1cc(-c2ccc(OC)c(OC)c2)nn1C [Compound 12] |  | 100 |  | 100 |  |
| CO/C=C(/C(=O)OC)c1ccccc1COc1cc(-c2cc(F)c(Cl)cc2Cl)nn1C [Compound 11] |  | 100 |  | 100 |  |
| CO/C=C(/C(=O)OC)c1ccccc1COc1cc(-c2ccc(Cl)cc2)nn1C [Compound 2] | 100 | 100 | 100 | 100 | control against tomato late blight (tomato late blight): more than 80%; control against rape sclerotiniose (rape sclerotiniose): more than 80%; control against wheat head blight (wheat head blight): more than 80%; control against apple alternaria leaf spot [1]: more than 80%; control against grape white rot (grape white rot): more than 80%; control against corn southern leaf blight [2]: more than 80%; control against apple ring rot (apple ring rot): more than 80%; control against tomato early blight (tomato early blight): more than 80%; control against grape downy mildew (grape downy mildew): more than 80% |
| CO/C=C(/C(=O)OC)c1ccccc1COc1cc(-c2ccc(Cl)cc2)no1 [Compound 84] | 100 | 100 | 100 | 100 |  |
| CO/C=C(/C(=O)OC)c1ccccc1COc1c(Cl)c(-c2ccc(-c3ccc(Cl)cc3)cc2)nn1C [Compound 179] |  |  |  | 100 |  |
| CO/C=C(/C(=O)OC)c1ccccc1COc1cc(-c2ccc([N+](=O)[O-])cc2)nn1C [Compound 4] | 100 | 100 | 100 | 100 |  |
| CO/N=C(/C(=O)OC)c1ccccc1COc1cc(-c2ccc(Cl)nc2)nn1C [Compound 287] | 100 | 100 | 100 | 100 |  |
| CO/C=C(/C(=O)OC)c1ccccc1COc1cc(-c2ccc(Cl)cc2)nn1C(C)C [Compound 190] |  | 100 |  | 100 |  |
